The target of this assay is alpha-L-fucosidase (Bos taurus). Nature of the assay: Compound was tested for inhibition of alpha-fucosidase from bovine kidney.

Each structure is given as a SMILES string.

The Ki is a measure of affinity in units of concentration, obtained from inhibition or displacement. Read a high Ki as weaker binding. Molecule `O[C@H]1[C@H](O)[C@H](O)CN(Cc2ccccc2)C[C@H]1O` [1-Benzyl-azepane-3,4,5,6-tetraol] showed a Ki of 23.4 µM.

These data come from BindingDB's records for doi:10.1016/0960-894X(96)00183-7 (1996).
